Measurements: patent US11364211B2, “Methods for selecting phosphatase selective and non-selective phosphatase inhibitors” (MEDICAL RESEARCH COUNCIL, priority 2015, dated 2022)
Entries after “also recorded” stand apart in the source; their conditions may differ.

Experiments:
HeLa cells = test: Cytoprotection from tunicamycin ER stress (WST-8 cell viability); type: cell-based, human; conditions: Tunicamycin 2.5 ug/ml, 0.2-5 μM compound
Experimental: Cells were plated in 24-well plates at a density of 15,000 (HeLa) or 12,000 cells/ml (MEFs) 24 hours prior to treatment. ER stress was elicited by addition of fresh media containing 2.5 μg/ml tunicamycin (Sigma-Aldrich). Compounds of Example 1 were dissolved in DMSO and added as indicated. DMSO was used as a mock treatment. Cell viability was assessed by measuring the reduction of WST-8 [2-(2-methoxy-4-nitrophenyl)-3-(4-nitrophenyl)-5-(2,4-disulfophenyl)-2H-tetrazolium] into formazan using Cell viability Counting Kit-8 (Dojindo) according to the supplier's recommendation, 48 hours after tunicamycin treatment.
Cells where stressed with Tunicamycin (2.5 ug/ml) in the presence of 0.2-5 μM of a compound of Example 1. Cell viability was measured 3 days after treatment.
Cytoprotection against ER stress can be measured by a suitable assay. In this instance, cytoprotection was measured in HeLa cells in which ER stress was elicited by the addition of media containing tunicamycin, a drug that blocks N-glycosylation, thereby preventing protein folding and inducing the unfolded protein response. Cell viability was then detected in the presence and absence of a compound of Example 1 after a set period of time, by measuring the reduction of WST-8 into formazan using the standard cell viability kit Cell Viability Counting Kit-8 from Dojindo. […]

[1] = Toxicity and weight in mice treated for 2 weeks; type: in vivo, mouse; parameters: toxicity / clinical signs: dose or concentration left out as unconfirmed
Experimental: For studying the effect of a compound of Example 1 on weight, C3H/B6 mice were gavaged orally once a day with compounds of Example 1 and mice weight was recorded daily for 2 weeks.
Mice were treated with Example 1 and monitored closely to detect any clinical signs. […] This establishes that PPP1R15B inhibition is not toxic. This was surprising and unanticipated as prior to this study one would have speculated that PPP1R15B inhibitors would be so deleterious that they would have no therapeutic potential.

[2] = Tissue distribution in mice after oral gavage; type: in vivo, mouse
Experimental: Pharmacokinetics studies were performed by XenoGesis. TST3 was administrated orally in C57BL/6J males. Plasma samples were prepared by protein precipitation with methanol containing internal standards. Tissues were weighed and prepared by homogenisation (1:3 in phosphate buffered saline) and protein precipitated with methanol containing internal standard. Following the addition of methanol, plasma and tissue samples were placed at −20° C. for 1 hour (or overnight) to allow proteins to precipitate. The samples were then centrifuged at 2,500×g (3,400 rpm) for 20 minutes at 4° C. The supernatants were analysed by LC-MS/MS.

PPP1R15A-PP1 complex = molecular target: T1, PPP1R15A-PP1 complex (Homo sapiens, UniProt O75807); test: SPR steady-state binding to R15A-PP1c holophosphatase on streptavidin chip
T1 construct: the cDNAs encoding amino acids 325-636 of PPP1R15A; made in house; host or cells: R15A fragment: E. coli BL21-Gold; BAP-PP1γ: Sf9 insect cells (baculovirus)
T1 sequence (O75807 325-636): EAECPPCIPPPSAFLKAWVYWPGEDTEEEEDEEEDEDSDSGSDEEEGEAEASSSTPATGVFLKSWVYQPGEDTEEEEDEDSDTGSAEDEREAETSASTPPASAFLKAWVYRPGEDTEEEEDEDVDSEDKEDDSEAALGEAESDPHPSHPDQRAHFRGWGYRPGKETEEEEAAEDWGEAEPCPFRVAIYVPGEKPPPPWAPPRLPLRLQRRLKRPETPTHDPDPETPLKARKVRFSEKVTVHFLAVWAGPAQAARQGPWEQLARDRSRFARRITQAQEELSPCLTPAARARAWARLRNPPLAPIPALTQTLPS
T1 sequence (P36873 whole entry partner, the tested form may be a part): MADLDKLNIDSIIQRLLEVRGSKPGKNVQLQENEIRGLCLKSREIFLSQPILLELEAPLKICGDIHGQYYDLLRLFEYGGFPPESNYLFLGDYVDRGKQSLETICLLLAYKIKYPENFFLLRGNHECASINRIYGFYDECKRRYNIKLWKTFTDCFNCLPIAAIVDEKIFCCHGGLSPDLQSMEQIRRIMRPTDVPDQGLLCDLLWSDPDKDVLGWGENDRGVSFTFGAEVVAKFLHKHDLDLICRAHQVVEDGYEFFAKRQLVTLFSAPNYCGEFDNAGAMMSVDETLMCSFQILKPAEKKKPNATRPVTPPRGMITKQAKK
Experimental: The streptavidin coated surface was activated by 1 min injection with a solution of 50 mM NaOH and 1 M NaCl. Biotin-PP1 was diluted in the running buffer (50 mM Tris pH 7.5, 100 mM NaCl, 0.1 mM EGTA, 1 mM MnCl2, 0.05% Tween 20) and injected at approximately 300 nM concentration directly to streptavidin coated surface for 100 sec or to reach immobilization level of biotin-PP1 corresponding to ˜7000 RU. A blank immobilization was performed for one of the SA sensor chip surface to use as a reference.
With minor deviations, the same procedure and conditions were used in all binding experiments. Small molecules were stored as 50 mM stock solutions in 100% DMSO. Prior to determining binding constants, serial dilutions of either 12 or 8 concentrations of the compounds were prepared in the running buffer in a 96-well plate. […] Then, without regenerating the surface, the compound dilution series was injected onto the surface of the chip Sensorgrams were analyzed using the Biacore T200 evaluation software and the binding constants determined based on a steady-state model. Kinetic experiments are carried out using different concentrations of the compound and their respective equilibrium binding levels determined.
Surface Plasmon Resonance (SPR) was used to measure the binding affinity of compounds to the PPP1R15A/B-PP1 phosphatase complex. Biotin acceptor peptide (BAP) was fused to the N-terminus of PP1γ, which enables the biotinylation of the BAP-tagged protein in Sf9 insect cells. After purification the BAP-PP1γ protein was captured on a streptavidin sensor chip (SA-chip, GE healthcare) to a response level of ˜5.000 RU. Using controlled biotinylation enables orientated and uniform immobilization on the sensor chip surface. The PP1γ was then used to capture PPP1R15A/B and form a holophosphatase complex on the surface of the streptavidin chip. This complex can then be used to test binding of compounds. 10 μM PPP1R15A/B protein concentration was used to form the holophosphatase complex during a 80 s injection. […] After the concentration series (8 or 12 concentrations) is completed the surface is regenerated with 3 M NaCl and we can capture R15A/B again to form a fresh holophosphatase complex to measure a binding of another compound concentration series. Analysing the level of equilibrium binding as a function of concentration gives interaction affinities or steady-state binding affinity (KD).
The streptavidin coated surface was activated by 1 minute injection with a solution of 50 mM NaOH and 1 M NaCl three times at a flow rate of 10 μl/min. bio-GBZ or bio-PP1c was diluted in the running buffer (50 mM Tris pH 7.5, 100 mM NaCl, 0.1 mM EGTA, 0.05% Tween 20, 0.1% DMSO) and injected at approximately 300 nM concentration at a flow rate of 10 μl/min directly to streptavidin coated surface to reach immobilization level of bio-GBZ or bio-PP1c corresponding to ˜200 and 6000 RU, respectively. A blank immobilization was performed for one of the SA sensor chip surface to use as a reference.
With minor deviations, the same procedure and conditions were used in all binding experiments. Small molecules were stored as 50 mM stock solutions in 100% DMSO. Prior to determining binding constants, serial dilutions of either 12 or 8 concentrations of the compounds were prepared in the running buffer in a 96-well plate. […] This was followed by 1 minute stabilization period, to wash off any unspecific binding. […]

| Compound | protection of cells from tunicamycin stress (cell viability) (HeLa cells) | toxicity / clinical signs ([1]; once a day for 2 weeks) | weight gain ([1]; up to 10 mg/mg once a day for 2 weeks) | tissue distribution (plasma, brain, spinal cord, pancreas, liver) [2] | binding to R15A-PP1c (in words) (PPP1R15A-PP1 complex) | Kd (PPP1R15A-PP1 complex; steady-state affinity, listed as GBZ) [nM] |
| --- | --- | --- | --- | --- | --- | --- |
| [H]/N=C(\N)NN=Cc1cccc(Cl)c1Cl [Example 1, (E)-2-(2,3-dichlorobenzylidene)hydrazine-1-carboximidamide] | protects cells from cytotoxic ER stress | undistinguishable from mice treated with placebo; also recorded: not toxic | gained weight normally | good tissue distribution; also recorded: extensive tissue distribution | – | – |
| N=C(N)N/N=C/c1c(Cl)cccc1Cl [Guanabenz, reference compound] | – | – | – | – | strongly bound | 122 |
